Measurements taken from patent US20240277658A1, “NLRP3 ACTIVATORS FOR USE IN THE TREATMENT OF INFECTIOUS DISEASES OR CANCER BY ACTIVATING NLRP3 INFLAMMASOME” (ALBERT-LUDWIGS-UNIVERSITÄT FREIBURG, priority 2020, published 2024).
“And” between values parts separate entries of the source, which are not always exact repeats. Equal entries are not always repeated. Where two headings read alike, the source gives them in different places.

Tests used:
BMDCs = assay: LDH release (lytic cell death, pyroptosis) from LPS-primed BMDCs; type: cell-based, mouse; details: compound 50 μM; for Average (% positive control): LDH release, positive control nigericin 5 μM; for cytotoxicity at 50 µM: Mus musculus, BMDC, LPS-primed BMDCs
How it was run: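 Mouse BMDCs (7-9 days differentiated, GM-CSF) primed with 50 ng ml^−1 E. coli K12 LPS for 3 hours, then exposed 3 hours to compounds (50 μM unless indicated) or activators (nigericin 5 μM; R837, CL097 100 μM). Lytic death measured as LDH release by colorimetric assay, triplicate wells.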

NLRP3 inflammasome = target: T1, NLRP3 inflammasome (Mus musculus, UniProt Q8R4B8); assay: IL-1β release from LPS-primed BMDCs (ELISA) as readout of NLRP3 inflammasome activation; type: cell-based; details: compound 50 μM; for Average (% positive control): IL-1β release, positive control nigericin 5 μM; for Average IL-1β / IL-1β: LPS-primed BMDCs; for IL-1β: single replicates
T1 construct: endogenous in cells; host or cells: primary mouse bone marrow-derived dendritic cells (BMDCs), LPS-primed
How it was run: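 NLRP3 inflammasome activation was read out as IL-1β released into the supernatant, measured by ELISA. Murine BMDCs were primed with LPS (50 ng ml^−1, 3 hours), then incubated with compounds for 3 hours, with each condition run in three technical replicates. Nigericin at 5 μM acted as the positive control activator, and IL-1β release was also expressed as a percentage of that control.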

[1] = read-out: Average LDH release (% of max.)
[2] = single replicates, read-out: LDH release (% of max.)

T1 sequence (Q8R4B8 whole entry): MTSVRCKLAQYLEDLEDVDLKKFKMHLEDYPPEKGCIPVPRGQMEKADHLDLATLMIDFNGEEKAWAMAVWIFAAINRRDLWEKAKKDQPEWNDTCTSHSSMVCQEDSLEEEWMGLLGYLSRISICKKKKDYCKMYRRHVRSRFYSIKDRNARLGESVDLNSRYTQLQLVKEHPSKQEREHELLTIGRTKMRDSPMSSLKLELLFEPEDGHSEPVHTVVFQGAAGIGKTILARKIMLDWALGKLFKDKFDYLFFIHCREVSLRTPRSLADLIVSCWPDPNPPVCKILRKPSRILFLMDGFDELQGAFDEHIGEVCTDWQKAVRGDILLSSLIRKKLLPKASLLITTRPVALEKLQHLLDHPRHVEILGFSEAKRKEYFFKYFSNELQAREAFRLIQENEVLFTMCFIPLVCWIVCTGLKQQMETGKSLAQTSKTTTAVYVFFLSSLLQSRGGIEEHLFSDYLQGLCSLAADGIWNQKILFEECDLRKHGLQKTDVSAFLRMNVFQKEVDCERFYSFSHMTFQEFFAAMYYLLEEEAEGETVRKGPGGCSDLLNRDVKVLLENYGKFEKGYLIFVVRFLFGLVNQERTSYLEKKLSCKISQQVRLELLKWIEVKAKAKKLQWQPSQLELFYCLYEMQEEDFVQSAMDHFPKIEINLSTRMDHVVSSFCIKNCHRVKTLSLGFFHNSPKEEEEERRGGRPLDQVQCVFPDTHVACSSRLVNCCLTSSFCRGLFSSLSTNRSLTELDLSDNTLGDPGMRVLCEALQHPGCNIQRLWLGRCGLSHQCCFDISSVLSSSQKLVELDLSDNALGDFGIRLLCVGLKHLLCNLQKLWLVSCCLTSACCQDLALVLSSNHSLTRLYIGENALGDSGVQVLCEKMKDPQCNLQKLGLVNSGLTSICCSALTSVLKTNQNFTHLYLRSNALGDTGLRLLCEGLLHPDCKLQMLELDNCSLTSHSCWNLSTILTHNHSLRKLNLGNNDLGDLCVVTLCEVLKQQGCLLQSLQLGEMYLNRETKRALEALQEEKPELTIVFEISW

COCc1cc(F)ccc1NC(=O)NC(c1nc(-c2cccnc2)no1)C(C)C (stereo not drawn) [L01.054, 1-[4-fluoro-2-(methoxy-methyl)phenyl]-3-{2-methyl-1-[3-(pyridin-3-yl)-1,2,4-oxadiazol-5-yl]propyl}urea]
Average (% positive control) (BMDCs): 11.431 % positive control | cytotoxicity at 50 µM (BMDCs; [1]): 8.36% | cytotoxicity at 50 µM (BMDCs; [2]): 7.79% | Average (% positive control) (NLRP3 inflammasome): 0.947 % positive control | Average IL-1β (NLRP3 inflammasome): 0.068 ng/mL | IL-1β (NLRP3 inflammasome): 0.067 ng/mL and 0.062 ng/mL and 0.074 ng/mL

COc1cccc(C)c1NC(=O)NC(c1nc(-c2cccnc2)no1)C(C)C (stereo not drawn) [L01.056, 1-(2-methoxy-6-methyl-phenyl)-3-{2-methyl-1-[3-(pyridin-3-yl)-1,2,4-oxadiazol-5-yl]propyl}-urea]
Average (% positive control) (BMDCs): 13.256 % positive control | cytotoxicity at 50 µM (BMDCs; [1]): 9.7% | cytotoxicity at 50 µM (BMDCs; [2]): 9.34% | Average (% positive control) (NLRP3 inflammasome): 0.905 % positive control | Average IL-1β (NLRP3 inflammasome): 0.065 ng/mL | IL-1β (NLRP3 inflammasome): 0.060 ng/mL and 0.073 ng/mL and 0.062 ng/mL

O=C(Nc1ccccc1)Nc1ccc(OC(F)(F)F)cc1 [L01.061, 1-phenyl-3-[4-(trifluoro-methoxy)phenyl]urea]
Average (% positive control) (BMDCs): 19.349 % positive control | cytotoxicity at 50 µM (BMDCs; [1]): 14.2% | cytotoxicity at 50 µM (BMDCs; [2]): 15.9% | Average (% positive control) (NLRP3 inflammasome): 6.360 % positive control | Average IL-1β (NLRP3 inflammasome): 0.456 ng/mL | IL-1β (NLRP3 inflammasome): 0.508 ng/mL and 0.439 ng/mL and 0.420 ng/mL

O=C(NCc1nc(-c2cccnc2)no1)Nc1cccc2cnccc12 [L01.062, 1-(isoquinolin-5-yl)-3-{[3-(pyridin-3-yl)-1,2,4-oxadiazol-5-yl]-methyl}urea]
Average (% positive control) (BMDCs): 18.117 % positive control | cytotoxicity at 50 µM (BMDCs; [1]): 13.3% | cytotoxicity at 50 µM (BMDCs; [2]): 13.4% | Average (% positive control) (NLRP3 inflammasome): 1.141 % positive control | Average IL-1β (NLRP3 inflammasome): 0.082 ng/mL | IL-1β (NLRP3 inflammasome): 0.084 ng/mL and 0.087 ng/mL and 0.074 ng/mL

O=C(Nc1ccccc1)Nc1ccc(NC(=O)c2ccco2)cc1 [L01.064, N-{4-[(phenylcarbamo-yl)amino]phenyl}furan-2-carboxamide]
Average (% positive control) (BMDCs): 11.958 % positive control | cytotoxicity at 50 µM (BMDCs; [1]): 8.75% | cytotoxicity at 50 µM (BMDCs; [2]): 8.96% | Average (% positive control) (NLRP3 inflammasome): 1.014 % positive control | Average IL-1β (NLRP3 inflammasome): 0.073 ng/mL | IL-1β (NLRP3 inflammasome): 0.065 ng/mL and 0.054 ng/mL and 0.100 ng/mL

O=C(Nc1ccccc1)Nc1ccc(NC2CCOCC2)cc1 [L01.065, 1-{4-[(oxan-4-l)amino]-phenyl}-3-phenylurea]
Average (% positive control) (BMDCs): 12.397 % positive control | cytotoxicity at 50 µM (BMDCs; [1]): 9.07% | cytotoxicity at 50 µM (BMDCs; [2]): 8.41% | Average (% positive control) (NLRP3 inflammasome): 0.928 % positive control | Average IL-1β (NLRP3 inflammasome): 0.067 ng/mL | IL-1β (NLRP3 inflammasome): 0.052 ng/mL and 0.070 ng/mL and 0.077 ng/mL

O=C(Nc1ccccc1)Nc1ccc2c(c1)CCC2 [L01.066, 3-(2,3-dihydro-1H-inden-5-yl)-1-phenyl-urea]
Average (% positive control) (BMDCs): 19.592 % positive control | cytotoxicity at 50 µM (BMDCs; [1]): 14.3% | cytotoxicity at 50 µM (BMDCs; [2]): 15.6% | Average (% positive control) (NLRP3 inflammasome): 3.698 % positive control | Average IL-1β (NLRP3 inflammasome): 0.265 ng/mL | IL-1β (NLRP3 inflammasome): 0.346 ng/mL and 0.256 ng/mL and 0.193 ng/mL

COc1cccc(NC(=O)NCc2nc(Cc3ccccc3)no2)c1 [L01.067, 3-[(3-benzyl-1,2,4-oxadiazol-5-yl)methyl]-1-(3-methoxyphenyl)-urea]
Average (% positive control) (BMDCs): 9.336 % positive control | cytotoxicity at 50 µM (BMDCs; [1]): 6.83% | cytotoxicity at 50 µM (BMDCs; [2]): 6.48% | Average (% positive control) (NLRP3 inflammasome): 0.942 % positive control | Average IL-1β (NLRP3 inflammasome): 0.068 ng/mL | IL-1β (NLRP3 inflammasome): 0.064 ng/mL and 0.069 ng/mL and 0.070 ng/mL

Cc1cccc(-c2noc(CN3C(=O)CN(c4ccccc4)C3=O)n2)c1 [L01.069, 3-{[3-(3-methylphenyl)-1,2,4-oxadiazol-5-yl]-methyl}-1-phenylimid-azolidine-2,4-dione]
Average (% positive control) (BMDCs): 12.713 % positive control | cytotoxicity at 50 µM (BMDCs; [1]): 9.3% | cytotoxicity at 50 µM (BMDCs; [2]): 9.2% | Average (% positive control) (NLRP3 inflammasome): 1.941 % positive control | Average IL-1β (NLRP3 inflammasome): 0.139 ng/mL | IL-1β (NLRP3 inflammasome): 0.131 ng/mL and 0.138 ng/mL and 0.149 ng/mL

Cc1ccc(N2C(=O)C(=O)N(Cc3nc(-c4ccsc4)no3)C2=O)cc1 [L01.071, 1-(4-methylphenyl)-3-{[3-(thiophen-3-yl)-1,2,4-oxadiazol-5-yl]-methyl}imidazolidine-2,4,5-trione]
Average (% positive control) (BMDCs): 11.833 % positive control | cytotoxicity at 50 µM (BMDCs; [1]): 8.66% | cytotoxicity at 50 µM (BMDCs; [2]): 9.01% | Average (% positive control) (NLRP3 inflammasome): 1.598 % positive control | Average IL-1β (NLRP3 inflammasome): 0.115 ng/mL | IL-1β (NLRP3 inflammasome): 0.116 ng/mL and 0.097 ng/mL and 0.131 ng/mL

Cc1cccc(NC(=O)Nc2ccccc2)c1 [L01.077, 3-(3-methylphenyl)-1-phenylurea]
Average (% positive control) (BMDCs): 7.980 % positive control | cytotoxicity at 50 µM (BMDCs; [1]): 5.84% | cytotoxicity at 50 µM (BMDCs; [2]): 5.28% | Average (% positive control) (NLRP3 inflammasome): 1.368 % positive control | Average IL-1β (NLRP3 inflammasome): 0.098 ng/mL | IL-1β (NLRP3 inflammasome): 0.067 ng/mL and 0.165 ng/mL and 0.062 ng/mL

O=C(NCc1nc(C2CC2)no1)Nc1cccc(F)c1 [L01.081, 3-[(3-cyclopropyl-1,2,4-oxadiazol-5-yl)methyl]-1-(3-fluorophenyl)urea]
Average (% positive control) (BMDCs): 8.656 % positive control | cytotoxicity at 50 µM (BMDCs; [1]): 6.33% | cytotoxicity at 50 µM (BMDCs; [2]): 6.87% | Average (% positive control) (NLRP3 inflammasome): 1.093 % positive control | Average IL-1β (NLRP3 inflammasome): 0.078 ng/mL | IL-1β (NLRP3 inflammasome): 0.075 ng/mL and 0.072 ng/mL and 0.088 ng/mL

CC(C)Oc1ccccc1NC(=O)NCc1nc(C2CC2)no1 [L01.083, 3-[(3-cyclopropyl-1,2,4-oxadiazol-5-yl)-methyl]-1-[2-(propan-2-yloxy)phenyl]urea]
Average (% positive control) (BMDCs): 8.649 % positive control | cytotoxicity at 50 µM (BMDCs; [1]): 6.33% | cytotoxicity at 50 µM (BMDCs; [2]): 6.8% | Average (% positive control) (NLRP3 inflammasome): 1.180 % positive control | Average IL-1β (NLRP3 inflammasome): 0.085 ng/mL | IL-1β (NLRP3 inflammasome): 0.080 ng/mL and 0.077 ng/mL and 0.097 ng/mL

O=C(Nc1ccccc1)Nc1cccc(NC(=O)C2CC2)c1 [L01.084, N-{3-[(phenylcarbamo-yl)amino]phenyl}cyclo-propanecarboxamide]
Average (% positive control) (BMDCs): 8.054 % positive control | cytotoxicity at 50 µM (BMDCs; [1]): 5.89% | cytotoxicity at 50 µM (BMDCs; [2]): 6% | Average (% positive control) (NLRP3 inflammasome): 1.362 % positive control | Average IL-1β (NLRP3 inflammasome): 0.098 ng/mL | IL-1β (NLRP3 inflammasome): 0.083 ng/mL and 0.111 ng/mL and 0.099 ng/mL

O=C(NCc1nc(-c2cccs2)no1)Nc1ccccc1 [L01.087, 1-phenyl-3-{[3-(thio-phen-2-yl)-1,2,4-oxadiazol-5-yl]meth-yl}urea]
Average (% positive control) (BMDCs): 9.562 % positive control | cytotoxicity at 50 µM (BMDCs; [1]): 7% | cytotoxicity at 50 µM (BMDCs; [2]): 6.79% | Average (% positive control) (NLRP3 inflammasome): 3.589 % positive control | Average IL-1β (NLRP3 inflammasome): 0.257 ng/mL | IL-1β (NLRP3 inflammasome): 0.237 ng/mL and 0.239 ng/mL and 0.296 ng/mL

Cc1ccc(NC(=O)NCc2nc(Cc3ccccc3)no2)cc1 [L01.088, 3-[(3-benzyl-1,2,4-oxadiazol-5-yl)methyl]-1-(4-methylphenyl)urea]
Average (% positive control) (BMDCs): 7.174 % positive control | cytotoxicity at 50 µM (BMDCs; [1]): 5.25% | cytotoxicity at 50 µM (BMDCs; [2]): 5.68% | Average (% positive control) (NLRP3 inflammasome): 0.866 % positive control | Average IL-1β (NLRP3 inflammasome): 0.062 ng/mL | IL-1β (NLRP3 inflammasome): 0.069 ng/mL and 0.058 ng/mL and 0.059 ng/mL

O=C1CN(c2ccccc2)C(=O)N1Cc1nc(-c2cccs2)no1 [L01.089, 1-phenyl-3-{[3-(thio-phen-2-yl)-1,2,4-oxadiazol-5-yl]meth-yl}imidazolidine-2,4-dione]
Average (% positive control) (BMDCs): 10.402 % positive control | cytotoxicity at 50 µM (BMDCs; [1]): 7.61% | cytotoxicity at 50 µM (BMDCs; [2]): 8.67% | Average (% positive control) (NLRP3 inflammasome): 4.526 % positive control | Average IL-1β (NLRP3 inflammasome): 0.324 ng/mL | IL-1β (NLRP3 inflammasome): 0.313 ng/mL and 0.316 ng/mL and 0.344 ng/mL
